Data from PubChem BioAssay (NCI).
Several values for one entry are separate records, joined by “and”; a condition that tells them apart may be missing. Equal values may be shown once.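 Exposure lasted 48 hours, with cells grown in 96-well plates and compounds tested at five concentrations. Abbreviation: GI50, concentration required for 50% inhibition of growth. TGI: concentration producing complete growth inhibition.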

How the values were obtained:
Assay in all cases: NCI-60 cell line screen, 48 h
A549 NSCLC = system: A549 NSCLC
CCRF-CEM leukemia = system: CCRF-CEM leukemia
HCT-116 colon = system: HCT-116 colon
HL-60(TB) leukemia = system: HL-60(TB) leukemia
K-562 leukemia = system: K-562 leukemia
LOX IMVI melanoma = system: LOX IMVI melanoma
MOLT-4 leukemia = system: MOLT-4 leukemia
NCI-H23 lung = system: NCI-H23 lung
PC-3 prostate = system: PC-3 prostate
SK-MEL-2 melanoma = system: SK-MEL-2 melanoma

Row | SMILES | TGI (A549 NSCLC) | TGI (CCRF-CEM leukemia) | TGI (HCT-116 colon) | TGI (HL-60(TB) leukemia) | TGI (K-562 leukemia) | TGI (LOX IMVI melanoma) | TGI (MOLT-4 leukemia) | TGI (NCI-H23 lung) | TGI (PC-3 prostate) | TGI (SK-MEL-2 melanoma) | GI50 (A549 NSCLC) | GI50 (CCRF-CEM leukemia) | GI50 (HCT-116 colon) | GI50 (HL-60(TB) leukemia) | GI50 (K-562 leukemia) | GI50 (LOX IMVI melanoma) | GI50 (MOLT-4 leukemia) | GI50 (NCI-H23 lung) | GI50 (PC-3 prostate) | GI50 (SK-MEL-2 melanoma)
1 | Cn1c(=O)c2[nH]c(/N=N/N3CCN(CCO)CC3)nc2n(C)c1=O | > 100 µM | > 100 µM | > 100 µM | > 100 µM | > 100 µM | > 100 µM | > 100 µM | > 100 µM | > 100 µM | > 100 µM | – | – | – | – | – | – | – | – | – | –
2 | O=C(CCl)c1ccc([N+](=O)[O-])o1 | 54.4 µM | 2.51 µM | 2.4 µM | – | > 19.8 µM | 3.19 µM | – | 26 µM | 6.34 µM | 27.4 µM | 21.1 µM | 0.932 µM | 0.519 µM | 1.64 µM | 1.18 µM | 1.47 µM | 1.15 µM | 4.94 µM | 2.15 µM | 6.81 µM
3 | NC(=O)[C@H]1CCN(c2ncnc(N)c2F)C[C@@H]1N1CCC[C@@H](Nc2cc(Cl)cc(C(F)(F)F)c2)C1=O | > 100 µM | > 100 µM | 43 µM | 42.5 µM | > 100 µM | 27.1 µM | 65.9 µM | 65.8 µM | > 100 µM | 41.5 µM | 15.8 µM | 24.5 µM | 15.5 µM | 20.5 µM | 18.4 µM | 11.2 µM | 4.93 µM | 20.8 µM | 17.7 µM | 19 µM
4 | CCn1c(-c2nonc2N)nc2cncc(C(=O)N3CCNCC3)c21 | > 25 µM | > 25 µM | > 25 µM | > 25 µM | > 25 µM | > 25 µM | > 25 µM | > 25 µM | > 25 µM | > 25 µM | > 25 µM | > 25 µM | > 25 µM | > 25 µM | > 25 µM | > 25 µM | > 25 µM | > 25 µM | > 25 µM | > 25 µM
5 | Nc1nc(/C=C\c2ccc([N+](=O)[O-])o2)nc(N2CCN(c3ccccc3)CC2)n1 | 86.5 µM | 82.3 µM | 12.2 µM | 61.8 µM | 26.7 µM | 21.2 µM | > 100 µM | – | 60.6 µM | > 100 µM | 19.9 µM | 8.01 µM | 2.61 µM | 7.73 µM | 4.63 µM | 3.49 µM | 8.39 µM | – | 7.81 µM | 9.91 µM
6 | Nc1ncnc2c1ccn2C1OC2COP(=O)(O)OC2C1O (stereo not drawn) | 12.8 µM | 20.2 µM | 10.4 µM | > 23.2 µM | 19 µM | 1.34 µM | 10.9 µM | 9.37 µM | 3.07 µM | 5.52 µM | – | – | – | – | – | – | – | – | – | –
7 | CC(C)(C(=O)NN)c1ccccc1 | > 100 µM | > 100 µM | > 100 µM | > 100 µM | > 100 µM | > 100 µM | > 100 µM | > 100 µM | > 100 µM | > 100 µM | – | – | – | – | – | – | – | – | – | –
8 | CCCN1C(=O)/C(=c2\sc3n(c2=O)C2C(NN=3)N(CC)C(=O)N2CC)c2ccccc21 (stereo not drawn) | 16.5 µM | > 100 µM | 12.4 µM | 1.03 µM | > 100 µM | 18.8 µM | > 100 µM | 15.8 µM | > 37.2 µM | 15.4 µM | 0.854 µM | 0.423 µM | 0.404 µM | 0.3 µM | 0.374 µM | 0.629 µM | 0.811 µM | 0.792 µM | 0.453 µM | 0.799 µM
9 | CC12CCC(=O)C=C1CCC1C2CCC2(C)C(C(=O)Cn3cnc4c(=S)nc[nH]c43)CCC12 (stereo not drawn) | > 100 µM | > 100 µM | > 100 µM | > 100 µM | > 100 µM | > 100 µM | > 100 µM | 82.5 µM | > 100 µM | > 100 µM | – | – | – | – | – | – | – | – | – | –
10 | C=C(C)[C@@H]1CC=C(CO)CC1 | > 10 µM and 755 µM | > 10 µM and 440 µM | > 10 µM and 627 µM | > 10 µM and 267 µM | > 10 µM and 1140 µM | > 10 µM and 923 µM | > 10 µM and 1050 µM | > 10 µM and 1120 µM | > 10 µM | > 10 µM and 817 µM | > 10 µM | > 10 µM | > 10 µM | > 10 µM | > 10 µM | > 10 µM | > 10 µM | > 10 µM | – | > 10 µM
11 | CCN=C1C=CC(=C(c2ccc(N(C)C)cc2)c2ccc(N(C)C)cc2)c2ccccc21 | 0.176 µM | 3.64 µM | 0.174 µM | 0.141 µM | 2.17 µM | 1.01 µM | 2.54 µM | 0.211 µM | 1.06 µM | 0.472 µM | 0.0312 µM | 0.153 µM | 0.0358 µM | 0.0434 µM | 0.0557 µM | 0.0528 µM | 0.202 µM | 0.03 µM | 0.0468 µM | 0.101 µM
12 | Fc1ccc(-c2nc3n(c2-c2ccncc2)CCS3)cc1 | > 25 µM | > 25 µM | > 25 µM | > 25 µM | > 25 µM | > 25 µM | > 25 µM | > 25 µM | > 25 µM | > 25 µM | > 25 µM | > 25 µM | > 25 µM | > 25 µM | > 25 µM | > 25 µM | > 25 µM | > 25 µM | > 25 µM | > 25 µM
13 | CCOC(=O)Cc1c[nH]c(=S)[nH]c1=O | > 100 µM | > 100 µM | > 100 µM | > 100 µM | > 100 µM | > 100 µM | > 100 µM | > 100 µM | > 100 µM | > 100 µM | > 100 µM | > 100 µM | > 100 µM | > 100 µM | > 100 µM | > 100 µM | > 100 µM | > 100 µM | > 100 µM | > 100 µM
14 | COc1ccc(Cn2nc(-c3cc(OC)c(OC)c(OC)c3)c3c2CCc2cnoc2-3)cc1OC | > 100 µM | > 100 µM | 44 µM | 2.28 µM | – | > 100 µM | > 100 µM | 64 µM | 65.3 µM | > 100 µM | 6.27 µM | 3.17 µM | 3.63 µM | 0.113 µM | – | 3.02 µM | 3.76 µM | 3.43 µM | 3.62 µM | 6.06 µM
